System: Felidae T1R1/T1R3 receptor
Experiment: Calcium imaging (fura-2, F340/F380) of HEK293 cells expressing T1R1/T1R3 receptor and Gα15, responses to taste stimuli
Assay type: cell-based, cat
Text: Provided herein are methods for determining if two or more test compounds have an augmenting effect on the T1R1/T1R3 receptor where each test compound alone elicits a small or moderate response comprising contacting the receptor with the test compounds, and measuring the response of the receptor to the test compounds, wherein the compounds have an augmenting effect on the receptor if the response of the receptor to the compounds in a mixture in which each compound is presented at a given concentration is greater than the response to either one of the compounds alone at its given respective concentration. Responses are measured in terms of the Fluorescence Ratio F340/F380 as detailed in the Examples. Responses are gauged by comparing each response with the response to 100 μM isoproterenol, the positive control which activates the cell through Gα15. A null response is less than 10% of the control response. A small or moderate response is equal to or greater than 10% of the control response. In some preferred embodiments, the T1R1/T1R3 receptor is a Felidae T1R1/T1R3 receptor
b. Cell Transfection: HEK293 cell lines that stably express Gα15 were grown and maintained at 37° C. DMEM supplemented with 10% FBS and MEM nonessential amino acids (Invitrogen); the medium for Gα15 transfected cells contains 5 μg/ml blasticidin (Invitrogen). Cells were co-transfected with expression constructs by using Lipofectamine 2000 reagent (Invitrogen). T1R1/T1R3 transfected cells were selected using Zeocin (100 μg/ml) and hygromycin (400 μg/ml).
c. Establishing stable cell lines: Transfected cells were maintained in antibiotic selective medium until colonies appear. Single colonies were identified two weeks after transfection and were examined for RNA expression by RT-PCR and for protein expression by immunohistochemistry. Positive colonies confirmed by RT-PCR and immunohistochemistry were stocked in liquid nitrogen as stable cell lines expressing T1R1/T1R3.
a. In vitro assays: HEK293 cells' responses to taste stimuli were measured using calcium imaging techniques (Nelson et al. 2001, Li et al. 2002, Gomez et al. 2005). Transfected cells were loaded with fura-2 containing buffer for one hour. Coverslips with fura-2 loaded cells were then placed in a recording chamber and continuously superfused with Hank's salt solution (Nelson et al. 2001). Enhancement solutions were applied by switching the superfusion, which allowed a complete change of bath solutions within 5-20 seconds, based on preliminary experiments with fluorescent dye for each setup and recording chamber. Calcium imaging recordings were performed using Imagemaster-5 multi-wavelength quantitative fluorescence imaging system (Photon Technology International, Inc.). Cells were illuminated with UV light at two wavelengths (340 or 380 nm). Intracellular calcium activity was computed from the ratio of emitted light from the 340/380 nm wavelengths. Excitation light was shuttered between acquisitions, with exposure times being minimized (typically 50-100 msec). Images are normally acquired every 2-5 sec. Using these conditions, cells remain viable in the recording setup for more than 2 h without significant effects of dye bleaching or baseline shifts. The use of ratiometric imaging reduces the problems associated with fluorescence quenching or dye loss that can generate artifacts using single-wavelength dyes.
b. Amino acid stimulation of the HEK transfected cell lines: In a typical experiment to determine if there is an interaction at the receptor between two compounds, the response (peak height of intracellular calcium concentration) to each compound as well as a mixture of the two compounds is measured. If each compound alone elicits a small or moderate response, it will be necessary to compare responses to single compounds with a mixture in which each compound is presented at its initial test concentration. In this manner we can determine if the enhancement is greater than simple additivity. […]

O=P([O-])([O-])OP(=O)([O-])O.[Na+].[Na+].[Na+] [sodium pyrophosphate, trisodium pyrophosphate]
response of HEK293 cell (calcium imaging) (FIG. 3, 10 mM sodium pyrophosphate presented singly): null responses
response of HEK293 cell (calcium imaging) (FIG. 3, 20 mM sodium pyrophosphate presented singly): null responses
response of HEK293 cells (calcium imaging) (FIG. 4, 5 cells, 20 mM sodium pyrophosphate alone): null responses
response of HEK293 cell (calcium imaging) (FIG. 6, 20 mM sodium pyrophosphate alone): weak response

C[C@H](N)C(=O)O [L-alanine]
response of HEK293 cell (calcium imaging) (FIG. 5, 25 mM L-alanine alone): null responses

N[C@@H](Cc1c[nH]cn1)C(=O)O [L-histidine]
augmentation of response by pyrophosphate (FIG. 4, 5 cells): not augmented
response of HEK293 cells (calcium imaging) (FIG. 4, 5 cells, 25 mM L-histidine alone): null responses
response of HEK293 cell (calcium imaging) (FIG. 5, 25 mM L-histidine alone): null responses

NCCCC[C@H](N)C(=O)O [L-lysine]
response of HEK293 cells (calcium imaging) (FIG. 4, 5 cells, 25 mM L-lysine alone): null responses
response of HEK293 cell (calcium imaging) (FIG. 6, 25 mM L-lysine alone): null response (A null response is less than 10% of the control response)

O=C(O)[C@@H]1CCCN1 [L-proline]
response of HEK293 cell (calcium imaging) (FIG. 1, 25 mM L-proline alone, vs 100 μM isoproterenol positive control): null responses
response of HEK293 cells (calcium imaging) (FIG. 2, 3 cells, 50 mM L-proline alone): null responses
response of HEK293 cell (calcium imaging) (FIG. 3, 50 mM L-proline presented singly): null responses
